Like-named read-outs stand apart in the source and are kept apart here.
Key:
Format in all cases: in vitro ADME
[1] = target: T1, CYP3A4 (Homo sapiens, UniProt P08684); experiment: direct inhibition of CYP450 in human liver microsomes (midazolam and testosterone probes)
T1 construct: from tissue; host or cells: human liver microsomes (pooled in the time-dependent assay)
Method: (§1) Direct inhibition: […] A Perspective of the Pharmaceutical Research and Manufacturers of America”, Drug Metabolism and Disposition, 37 (7): 1355, 2009). For 3A4, the % activity was measured using both midazolam and testosterone as probes. Each compound at 3, 10, and 50 μM was incubated with HLM, NADPH and CYP isoenzyme specific probe substrates at 37° C. Inhibition of the probe substrate metabolism was quantified using LC/MS/MS. […] Known chemical inhibitors specific for the individual CYP isoenzymes were evaluated in parallel as positive controls and these compounds produced CYP inhibition consistent with published results (Walsky & Obach RS. “Validated assays for human cytochrome P450 activities”. Drug Metab Dispos. 32(6):647-60, 2004). Note that, in Tables 6 and 7, the “Compound No” corresponds to the compound numbers in Table 1.

[2] = target: T2, CYP2B6 (Homo sapiens, UniProt P20813); experiment: direct inhibition of CYP450 in human liver microsomes; conditions: for activity at 3 µM / activity at 10 µM / activity at 50 µM: % of non-inhibited control, read-out: CYP2B6 T0 % activity; for IC50: estimated from 3, 10, 50 uM, read-out: CYP2B6 T0 estimated IC50
T2 construct: from tissue; host or cells: human liver microsomes (pooled in the time-dependent assay)
T2 sequence (P20813 1-491): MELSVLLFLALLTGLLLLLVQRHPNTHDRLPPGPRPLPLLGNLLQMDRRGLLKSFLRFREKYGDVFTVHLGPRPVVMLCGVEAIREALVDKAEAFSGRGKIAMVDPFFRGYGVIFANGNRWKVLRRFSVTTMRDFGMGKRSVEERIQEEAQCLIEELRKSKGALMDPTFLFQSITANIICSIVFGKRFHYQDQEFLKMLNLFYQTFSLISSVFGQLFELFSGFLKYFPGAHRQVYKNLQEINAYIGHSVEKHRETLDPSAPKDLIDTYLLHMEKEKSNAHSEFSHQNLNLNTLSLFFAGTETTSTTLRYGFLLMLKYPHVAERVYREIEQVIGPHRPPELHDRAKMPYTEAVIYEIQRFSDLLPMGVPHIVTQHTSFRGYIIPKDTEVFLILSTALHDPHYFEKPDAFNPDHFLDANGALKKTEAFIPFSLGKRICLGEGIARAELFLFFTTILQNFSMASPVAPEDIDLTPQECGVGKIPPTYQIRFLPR
Method: as §1

[3] = target: T3, CYP1A2 (Homo sapiens, UniProt P05177); experiment: as above
T3 construct: from tissue; host or cells: human liver microsomes (pooled in the time-dependent assay)
T3 sequence (P05177 1-516): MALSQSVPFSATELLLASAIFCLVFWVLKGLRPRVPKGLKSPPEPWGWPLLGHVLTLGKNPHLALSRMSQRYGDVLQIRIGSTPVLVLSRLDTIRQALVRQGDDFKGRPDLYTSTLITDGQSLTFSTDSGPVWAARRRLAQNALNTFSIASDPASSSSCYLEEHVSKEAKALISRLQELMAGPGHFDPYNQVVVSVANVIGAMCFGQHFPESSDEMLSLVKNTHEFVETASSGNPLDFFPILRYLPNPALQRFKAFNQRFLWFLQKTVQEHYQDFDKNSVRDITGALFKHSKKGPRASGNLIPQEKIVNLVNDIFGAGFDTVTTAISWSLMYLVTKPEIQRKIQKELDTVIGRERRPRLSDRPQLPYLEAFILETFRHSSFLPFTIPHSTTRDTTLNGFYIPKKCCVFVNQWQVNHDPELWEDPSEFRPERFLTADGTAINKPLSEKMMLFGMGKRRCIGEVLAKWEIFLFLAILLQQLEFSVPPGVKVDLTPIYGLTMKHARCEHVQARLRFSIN
Method: as §1

[4] = target: T4, CYP2D6 (Homo sapiens, UniProt P10635); experiment: as above; conditions: for activity at 3 µM / activity at 10 µM / activity at 50 µM: % of non-inhibited control, read-out: CYP2D6 T0 % activity; for IC50: estimated from 3, 10, 50 uM, read-out: CYP2D6 T0 estimated IC50
T4 construct: from tissue; host or cells: human liver microsomes (pooled in the time-dependent assay)
T4 sequence (P10635 whole entry): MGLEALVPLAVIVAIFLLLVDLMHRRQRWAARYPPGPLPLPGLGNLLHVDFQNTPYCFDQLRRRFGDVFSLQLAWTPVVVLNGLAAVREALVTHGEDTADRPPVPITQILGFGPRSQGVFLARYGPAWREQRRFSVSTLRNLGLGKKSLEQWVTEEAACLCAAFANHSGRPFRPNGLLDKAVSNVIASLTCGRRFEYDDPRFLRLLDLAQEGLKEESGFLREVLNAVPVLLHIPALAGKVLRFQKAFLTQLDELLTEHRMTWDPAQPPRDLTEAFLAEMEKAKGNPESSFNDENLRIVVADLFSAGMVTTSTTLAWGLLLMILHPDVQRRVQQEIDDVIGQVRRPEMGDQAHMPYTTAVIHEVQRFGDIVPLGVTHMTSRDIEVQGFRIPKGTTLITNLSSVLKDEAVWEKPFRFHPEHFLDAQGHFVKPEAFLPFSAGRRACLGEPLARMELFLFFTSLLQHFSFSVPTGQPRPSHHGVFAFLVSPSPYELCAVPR
Method: as §1

[5] = target: T5, CYP2C19 (Homo sapiens, UniProt P33261); experiment: as above; conditions: for activity at 3 µM / activity at 10 µM / activity at 50 µM: % of non-inhibited control, read-out: CYP2C19 T0 % activity; for IC50: estimated from 3, 10, 50 uM, read-out: CYP2C19 T0 estimated IC50
T5 construct: from tissue; host or cells: human liver microsomes (pooled in the time-dependent assay)
T5 sequence (P33261 whole entry): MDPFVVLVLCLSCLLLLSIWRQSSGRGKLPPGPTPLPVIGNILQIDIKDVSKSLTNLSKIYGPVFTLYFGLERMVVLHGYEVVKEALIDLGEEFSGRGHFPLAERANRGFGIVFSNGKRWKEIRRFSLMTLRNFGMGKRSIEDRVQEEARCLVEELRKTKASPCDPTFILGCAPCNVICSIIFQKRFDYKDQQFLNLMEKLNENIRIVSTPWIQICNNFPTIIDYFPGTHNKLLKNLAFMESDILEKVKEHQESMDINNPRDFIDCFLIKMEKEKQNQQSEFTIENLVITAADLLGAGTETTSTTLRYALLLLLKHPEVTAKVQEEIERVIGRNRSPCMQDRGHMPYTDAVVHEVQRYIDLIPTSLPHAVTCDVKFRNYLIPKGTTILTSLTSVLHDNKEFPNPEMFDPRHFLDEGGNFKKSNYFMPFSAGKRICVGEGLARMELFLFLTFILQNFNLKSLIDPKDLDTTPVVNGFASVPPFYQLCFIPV
Method: as §1

[6] = target: T6, CYP2C9 (Homo sapiens, UniProt P11712); experiment: as above; conditions: for activity at 3 µM / activity at 10 µM / activity at 50 µM: % of non-inhibited control, read-out: CYP2C9 T0 % activity; for IC50: estimated from 3, 10, 50 uM, read-out: CYP2C9 T0 estimated IC50
T6 construct: from tissue; host or cells: human liver microsomes (pooled in the time-dependent assay)
T6 sequence (P11712 whole entry): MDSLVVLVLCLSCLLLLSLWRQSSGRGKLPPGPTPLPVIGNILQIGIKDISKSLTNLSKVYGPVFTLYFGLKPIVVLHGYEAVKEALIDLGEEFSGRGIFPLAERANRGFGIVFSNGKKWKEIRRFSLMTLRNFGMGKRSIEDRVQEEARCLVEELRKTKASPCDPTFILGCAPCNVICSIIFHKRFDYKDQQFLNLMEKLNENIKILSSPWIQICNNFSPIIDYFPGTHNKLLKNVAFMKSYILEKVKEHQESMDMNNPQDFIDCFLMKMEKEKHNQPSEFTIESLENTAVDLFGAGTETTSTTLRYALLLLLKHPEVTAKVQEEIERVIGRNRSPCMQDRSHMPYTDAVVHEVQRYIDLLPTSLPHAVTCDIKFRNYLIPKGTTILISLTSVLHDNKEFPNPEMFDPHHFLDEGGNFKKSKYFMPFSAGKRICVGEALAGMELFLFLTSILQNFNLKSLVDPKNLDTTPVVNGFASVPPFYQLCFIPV
Method: as §1

[7] = midazolam probe, read-out: CYP3A4-M T0 % activity
[8] = testosterone probe, read-out: CYP3A4-T T0 % activity
[9] = midazolam probe, read-out: CYP3A4-M T0 estimated IC50
[10] = testosterone probe, read-out: CYP3A4-T T0 estimated IC50

T1 sequence (P08684 whole entry): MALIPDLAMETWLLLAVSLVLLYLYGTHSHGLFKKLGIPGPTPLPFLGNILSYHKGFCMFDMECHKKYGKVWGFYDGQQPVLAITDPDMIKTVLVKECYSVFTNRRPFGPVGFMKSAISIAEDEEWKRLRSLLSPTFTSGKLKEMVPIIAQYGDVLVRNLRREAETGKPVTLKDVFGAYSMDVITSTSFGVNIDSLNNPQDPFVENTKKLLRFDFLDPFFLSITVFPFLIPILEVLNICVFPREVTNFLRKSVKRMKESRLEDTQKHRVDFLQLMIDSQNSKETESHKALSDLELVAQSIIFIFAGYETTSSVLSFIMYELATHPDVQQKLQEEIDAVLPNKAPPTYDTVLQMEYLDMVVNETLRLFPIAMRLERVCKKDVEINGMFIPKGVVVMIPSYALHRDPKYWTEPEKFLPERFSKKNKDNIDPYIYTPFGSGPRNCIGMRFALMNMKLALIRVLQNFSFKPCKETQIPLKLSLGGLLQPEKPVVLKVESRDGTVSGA

Compound | activity at 3 µM [1, 7] [%] | activity at 3 µM [1, 8] [%] | activity at 10 µM [1, 7] [%] | activity at 10 µM [1, 8] [%] | activity at 50 µM [1, 7] [%] | activity at 50 µM [1, 8] [%] | IC50 [1, 9] [µM] | IC50 [1, 10] [µM] | activity at 3 µM [2] [%] | activity at 10 µM [2] [%] | activity at 50 µM [2] [%] | IC50 [2] [µM] | activity at 3 µM [4] [%] | activity at 10 µM [4] [%] | activity at 50 µM [4] [%] | IC50 [4] [µM] | activity at 3 µM [5] [%] | activity at 10 µM [5] [%] | activity at 50 µM [5] [%] | IC50 [5] [µM] | also measured
[2H]c1nc([2H])n(-c2nc(C)cc(C(=O)N[C@H]3CC[C@H](OCCOC)CC3)n2)c1[2H] [Comparator Compound A, reference compound] | 98 | 100 | 99 | 97 | 91 | 103 | > 50 | > 50 | 103 | 98 | 57 | > 50 | 95 | 82 | 42 | < 50 | 77 | 49 | 17 | ~10 | activity at 3 µM ([3]; 3 uM, human liver microsomes, % of non-inhibited control, read-out: CYP1A2 T0 % activity): 98%; activity at 10 µM ([3]; 10 uM, human liver microsomes, % of non-inhibited control, read-out: CYP1A2 T0 % activity): 98%; activity at 50 µM ([3]; 50 uM, human liver microsomes, % of non-inhibited control, read-out: CYP1A2 T0 % activity): 92%; IC50 ([3]; human liver microsomes, estimated from 3, 10, 50 uM, read-out: CYP1A2 T0 estimated IC50): > 50 µM; activity at 3 µM [6]: 88%; activity at 10 µM [6]: 64%; activity at 50 µM [6]: 24%; IC50 [6]: < 50 µM
CO[C@H]1CC[C@H](NC(=O)c2nccc(-n3ccnc3)n2)CC1 [Compound 145, 4-(1H-Imidazol-1-yl)-N-((1r,4r)-4-methoxycyclohexyl)pyrimidine-2-carboxamide] | 99 | 96 | 89 | 98 | 75 | 95 | > 50 | > 50 | 101 | 98 | 99 | > 50 | 93 | 73 | 47 | < 50 | 92 | 93 | 89 | > 50 | IC50 [3]: > 50 µM; activity at 3 µM ([3]; human, microsomes): 94%; activity at 10 µM ([3]; human, microsomes): 92%; activity at 50 µM ([3]; human, microsomes): 79%; activity at 3 µM [6]: 97%; activity at 10 µM [6]: 99%; activity at 50 µM [6]: 96%; IC50 [6]: > 50 µM

Reference: US20230116972A1, “CD38 MODULATORS AND METHODS OF USE THEREOF” (Cytokinetics, Inc., priority 2021, published 2023)
